Data taken from patent US20260091086A1, “POLYPEPTIDE COMBINATIONS AND USES THEREOF” (MEDIMMUNE LIMITED, priority 2024, published 2026).

Columns and labels:
Type in all cases: in vivo, rat
[1] = tested on: diet-induced obese (DIO) Sprague-Dawley rats; test: Example 2: 28-day combination study in DIO rats (body weight, EchoMRI body composition); conditions: LAA 10 nmol/kg, GLP-1/GCG 5.4 nmol/kg or both
Procedure: Study Design: Male diet-induced obese (DIO) Sprague-Dawley rats were fed a high fat diet (45% fat, D12451; Research Diets) for 34 weeks prior to study start. […] Research Diets). […] Average body weight for all DIO rats at start of study was 722.4+10.1 grams. Body composition was measured by EchoMRI on day-7 and day 26. In this experiment, the LAA was that of SEQ ID NO: 11, and the GLP-1/GCG dual-agonist was cotadutide. Data reported as mean±standard error of the mean (SEM); data analysis performed using GraphPad Prism-statistical analysis performed using One-way ANOVA with Tukey ad hoc analysis.

[2] = tested on: DIO Sprague-Dawley rats; test: Example 3: 28-day body weight study in DIO rats; conditions: day 28
Procedure: Study Design: Male DIO Sprague-Dawley rats were fed a high-fat diet (32.5% kcal fat, D12266B; Research Diets) for approximately 8 weeks prior to study start. Rats were dosed once daily SC for 28 days with Vehicle, GLP-1/GCG (1.5 nmol/kg or 5 nmol/kg), LAA (7.5 nmol/kg) or a combination of GLP-1/GCG and LAA (1.5 and 7.5 nmol/kg, or 5 nmol/kg and 7.5 nmol/kg, respectively) with an n=6/group. Body weight was monitored daily throughout the study. Data reported as mean±standard error of the mean (SEM); data analysis performed using GraphPad Prism-statistical analysis performed using One-way ANOVA with Tukey ad hoc analysis (*p<0.05, **p<0.01, ***0<0.001, ****p<0.0001). In this experiment, the LAA was that of SEQ ID NO: 11, and the GLP-1/GCG dual-agonist was cotadutide.

[3] = tested on: DIO male pair-housed rats; test: Example 3 additional study: 28-day body weight, food intake and organ weights in DIO rats
Procedure: (§1) Study design: DIO male pair-housed rats fed a 32.5% high-fat diet (D12266B) for 7 weeks reached a mean body weight (BW) of ˜595 g. Rats were dosed SC daily for 28 days with vehicle (Vh), GLP-1/GCG dual agonist (1.5 or 5 nmol/kg), LAA (2.5 or 7.5 nmol/kg), or combination (1.5+2.5 nmol/kg, 1.5+7.5 nmol/kg, 5+2.5 nmol/kg, or 5+7.5 nmol/kg, respectively). Food intake (FI) and BW were measured daily. In chow fed lean rats, gastric emptying (GE) was measured via X-ray fluoroscopic quantification following SC injections of Vh, GLP-1/GCG dual agonist at 1, 3, or 10 nmol/kg or LAA at 1, 3, or 10 nmol/kg. In a subsequent acute GE study, lean rats received a single dose of Vh, GLP-1/GCG dual agonist (2 nmol/kg), LAA (2 nmol/kg) or GLP-1/GCG dual agonist+LAA combination (2+2 nmol/kg). In this experiment, the LAA was that of SEQ ID NO: 11, and the GLP-1/GCG dual-agonist was cotadutide.

[4] = tested on: chow fed lean rats; test: Example 3: acute gastric emptying by X-ray fluoroscopic quantification; conditions: acute SC
Procedure: as §1

[5] = tested on: DIO Sprague-Dawley rats; test: Example 5: 19-day Q2D body weight study with Fc-linked agonists; conditions: mono-treatment 0.1 mg/kg Q2D SC, 19 days
Procedure: Study Design: Male DIO Sprague-Dawley rats were fed a high-fat diet (32.5% kcal fat, D12266B; Research Diets) for approximately 6 weeks prior to study start. Rats were dosed every other day (Q2D) SC for 19 days with Vehicle, GLP1-Fc (0.1 or 1 mg/kg), Fc-LAA (0.1 or 2 mg/kg) or a combination of GLP1-Fc and Fc-LAA (0.1+0.1 mg/kg, 0.1+2 mg/kg, 1+0.1 mg/kg or 1+2 mg/kg respectively) with an n=7/group. Body weight was monitored daily through-out study and shown below as % change of vehicle treatment. Data reported as mean±standard error of the mean (SEM). In this experiment, the LAA was an Fc-Amylin, and the GLP-1 agonist was dulaglutide (a GLP-1 agonist covalently linked to an Fc fragment of IgG4).

Substance | body weight loss vs Vehicle ([1]; SC QD, FIG. 1A) | fat mass change (EchoMRI) ([1]; day 26) | lean mass change (EchoMRI) ([1]; day 26) | mean change in body weight normalized to Vehicle ([2]; GLP-1/GCG 1.5 nmol/kg SC QD) | mean change in body weight normalized to Vehicle ([2]; GLP-1/GCG 5 nmol/kg SC QD) | Vh corrected BW change (BW gain) ([3]; 28 days SC daily, GLP-1/GCG dual agonist 1.5 nmol/kg) | Vh corrected BW change (BW gain) ([3]; 28 days SC daily, GLP-1/GCG dual agonist 5 nmol/kg) | Cumulative FI normalized to Vh ([3]; 28 days SC daily, monotherapy and combination groups) | Liver lipids (%) vs Vh ([3]; all GLP-1/GCG dual agonist 5 nmol/kg treated groups) | Liver weights vs. Vh ([3]; all combination groups, GLP-1/GCG dual agonist monotherapy at 5 nmol/kg) | GE AUC as % of Vehicle ([4]; 1 nmol/kg) | GE AUC as % of Vehicle ([4]; 3 nmol/kg) | GE AUC as % of Vehicle ([4]; 10 nmol/kg) | body weight change normalized to vehicle [5]
HSQGTFTSD-X10-SEYLDSERARDFVAWLEAGG-acid, wherein X10=Lys[ε-γE-Palmitoyl] [GLP-1/GCG] | lost significantly more body weight than Vehicle treated rats | lost both fat and lean mass compared to Vehicle treated animals | lost both fat and lean mass compared to Vehicle treated animals | −8.4% | −25% | −8.4% | −25.0% | decreased in a dose-dependent manner | lower than Vh | Liver weights decreased | 85% | 49% | 24% | –
dulaglutide [GLP1-Fc] | – | – | – | – | – | – | – | – | – | – | – | – | – | 1.0%
